We go through four molecules from publication PMC5564600 (Oncotarget, 2017).

Where two headings read alike, the source gives them in different places.

What all share (assay): biochemical
What all share (assay type): binding

Assay [1] concerns the target T1, panel of 442 kinases (Homo sapiens, UniProt P07949).
T1 construct: purchased Ambit Biosciences (scanMAXX KINOMEscan)
The note with it: kinase RET; for remaining activity at 1 µM: read-out: RET (% of control at 1 µM).

The target in assay [2] is T2, panel of 442 kinases (Homo sapiens, UniProt P48736).
T2 construct: purchased Ambit Biosciences (scanMAXX KINOMEscan)
T2 sequence (P48736 whole entry): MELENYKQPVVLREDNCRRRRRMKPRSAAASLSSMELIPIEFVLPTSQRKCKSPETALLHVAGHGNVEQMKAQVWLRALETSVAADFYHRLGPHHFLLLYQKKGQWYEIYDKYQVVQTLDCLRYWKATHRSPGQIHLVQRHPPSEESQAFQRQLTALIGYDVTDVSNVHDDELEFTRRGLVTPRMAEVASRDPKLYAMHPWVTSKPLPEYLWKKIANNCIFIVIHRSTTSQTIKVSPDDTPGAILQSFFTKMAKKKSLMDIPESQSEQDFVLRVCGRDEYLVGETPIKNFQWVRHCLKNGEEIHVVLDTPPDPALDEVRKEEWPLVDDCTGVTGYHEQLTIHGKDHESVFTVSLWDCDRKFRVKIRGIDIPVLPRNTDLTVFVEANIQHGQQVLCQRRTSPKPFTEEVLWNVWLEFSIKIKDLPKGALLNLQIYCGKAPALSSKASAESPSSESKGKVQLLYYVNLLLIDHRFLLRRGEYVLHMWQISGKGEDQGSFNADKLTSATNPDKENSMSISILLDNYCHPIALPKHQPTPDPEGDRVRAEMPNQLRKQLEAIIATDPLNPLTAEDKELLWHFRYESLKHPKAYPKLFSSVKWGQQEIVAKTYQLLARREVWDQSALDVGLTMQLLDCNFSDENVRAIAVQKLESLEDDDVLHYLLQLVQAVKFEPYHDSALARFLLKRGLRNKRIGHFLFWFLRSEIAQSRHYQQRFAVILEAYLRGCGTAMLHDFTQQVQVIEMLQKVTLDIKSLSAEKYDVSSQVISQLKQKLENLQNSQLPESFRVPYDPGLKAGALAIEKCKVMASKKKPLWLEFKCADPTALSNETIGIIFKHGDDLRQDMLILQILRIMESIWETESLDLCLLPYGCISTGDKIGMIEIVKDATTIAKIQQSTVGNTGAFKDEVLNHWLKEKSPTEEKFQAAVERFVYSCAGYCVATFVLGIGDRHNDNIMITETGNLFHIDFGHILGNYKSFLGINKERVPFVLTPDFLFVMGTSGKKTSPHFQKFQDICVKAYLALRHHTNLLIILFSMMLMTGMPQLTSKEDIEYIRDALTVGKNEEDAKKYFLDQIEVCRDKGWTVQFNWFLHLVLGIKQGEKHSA
Particulars: kinase PIK3CG; 1 µM; read-out: % of control at 1 µM.

Assay [3] concerns the target T3, panel of 442 kinases (Homo sapiens, UniProt P42680).
T3 construct: purchased Ambit Biosciences (scanMAXX KINOMEscan)
T3 sequence (P42680 1-631): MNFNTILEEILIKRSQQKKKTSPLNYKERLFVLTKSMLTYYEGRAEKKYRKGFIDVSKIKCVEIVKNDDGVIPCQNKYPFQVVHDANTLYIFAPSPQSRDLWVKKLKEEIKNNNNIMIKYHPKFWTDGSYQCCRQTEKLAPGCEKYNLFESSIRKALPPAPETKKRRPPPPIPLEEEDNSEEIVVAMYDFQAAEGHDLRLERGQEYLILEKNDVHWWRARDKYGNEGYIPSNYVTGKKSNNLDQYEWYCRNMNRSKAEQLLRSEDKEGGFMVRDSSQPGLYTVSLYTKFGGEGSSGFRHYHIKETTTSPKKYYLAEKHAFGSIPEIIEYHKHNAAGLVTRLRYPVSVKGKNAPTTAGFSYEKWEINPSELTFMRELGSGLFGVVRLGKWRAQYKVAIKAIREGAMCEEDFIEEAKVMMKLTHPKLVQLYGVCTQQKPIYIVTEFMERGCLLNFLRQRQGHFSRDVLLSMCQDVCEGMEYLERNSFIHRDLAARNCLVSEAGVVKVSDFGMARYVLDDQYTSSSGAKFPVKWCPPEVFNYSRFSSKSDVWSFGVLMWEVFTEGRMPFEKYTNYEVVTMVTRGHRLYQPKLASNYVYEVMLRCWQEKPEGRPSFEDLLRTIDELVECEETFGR
Particulars: kinase TEC; for remaining activity at 1 µM: read-out: TEC (% of control at 1 µM).

Assay [4] concerns the target T4, panel of 442 kinases (Homo sapiens, UniProt P31749).
T4 construct: purchased Ambit Biosciences (scanMAXX KINOMEscan)
Particulars: AKT1; for remaining activity at 1 µM: read-out: % of control at 1 µM.

Assay [5] has as its target T5, panel of 442 kinases (Homo sapiens, UniProt P45983).
T5 construct: purchased Ambit Biosciences (scanMAXX KINOMEscan)
The note with it: kinase JNK1; for remaining activity at 1 µM: read-out: % of control at 1 µM.

Assay [6] deals with T6, panel of 442 kinases (Homo sapiens, UniProt O95819).
T6 construct: purchased Ambit Biosciences (scanMAXX KINOMEscan)
T6 sequence (O95819 whole entry): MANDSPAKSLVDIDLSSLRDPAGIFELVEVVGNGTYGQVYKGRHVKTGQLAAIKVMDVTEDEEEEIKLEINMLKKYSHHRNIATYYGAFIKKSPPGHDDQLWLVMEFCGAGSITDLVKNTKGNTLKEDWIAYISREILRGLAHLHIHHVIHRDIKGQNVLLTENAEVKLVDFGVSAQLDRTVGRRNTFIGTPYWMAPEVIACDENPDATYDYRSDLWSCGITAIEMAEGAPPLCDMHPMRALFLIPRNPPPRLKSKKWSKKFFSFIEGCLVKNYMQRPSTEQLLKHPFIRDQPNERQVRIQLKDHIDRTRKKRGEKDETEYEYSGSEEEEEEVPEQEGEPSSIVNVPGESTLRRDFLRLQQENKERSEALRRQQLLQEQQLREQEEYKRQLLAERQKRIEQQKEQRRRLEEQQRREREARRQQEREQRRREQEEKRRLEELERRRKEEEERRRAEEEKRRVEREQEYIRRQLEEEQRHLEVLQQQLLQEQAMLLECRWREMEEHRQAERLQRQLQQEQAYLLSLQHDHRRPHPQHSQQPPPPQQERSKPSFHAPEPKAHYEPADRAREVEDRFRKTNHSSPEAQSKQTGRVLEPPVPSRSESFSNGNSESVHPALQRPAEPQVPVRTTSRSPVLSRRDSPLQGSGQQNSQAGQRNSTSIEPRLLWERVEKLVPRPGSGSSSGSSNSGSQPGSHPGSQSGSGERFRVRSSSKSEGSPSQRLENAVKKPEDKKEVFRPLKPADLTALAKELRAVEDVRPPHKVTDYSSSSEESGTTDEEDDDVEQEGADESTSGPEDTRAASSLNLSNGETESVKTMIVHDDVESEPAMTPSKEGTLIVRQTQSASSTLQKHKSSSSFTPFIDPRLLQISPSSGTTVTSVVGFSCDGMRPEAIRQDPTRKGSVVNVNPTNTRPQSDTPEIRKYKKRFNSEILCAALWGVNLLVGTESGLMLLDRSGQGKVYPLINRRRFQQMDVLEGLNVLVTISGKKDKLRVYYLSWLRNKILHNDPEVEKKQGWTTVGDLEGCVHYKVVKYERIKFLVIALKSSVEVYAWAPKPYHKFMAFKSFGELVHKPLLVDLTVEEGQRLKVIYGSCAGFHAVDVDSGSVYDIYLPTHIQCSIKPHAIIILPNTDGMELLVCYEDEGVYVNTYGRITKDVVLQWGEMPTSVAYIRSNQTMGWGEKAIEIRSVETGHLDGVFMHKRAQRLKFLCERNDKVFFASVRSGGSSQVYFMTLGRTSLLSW
Particulars: kinase MAP4K4; for remaining activity at 1 µM: read-out: % of control at 1 µM.

Assay [7] has as its target T7, panel of 442 kinases (Homo sapiens, UniProt P51955).
T7 construct: purchased Ambit Biosciences (scanMAXX KINOMEscan)
T7 sequence (P51955 1-445): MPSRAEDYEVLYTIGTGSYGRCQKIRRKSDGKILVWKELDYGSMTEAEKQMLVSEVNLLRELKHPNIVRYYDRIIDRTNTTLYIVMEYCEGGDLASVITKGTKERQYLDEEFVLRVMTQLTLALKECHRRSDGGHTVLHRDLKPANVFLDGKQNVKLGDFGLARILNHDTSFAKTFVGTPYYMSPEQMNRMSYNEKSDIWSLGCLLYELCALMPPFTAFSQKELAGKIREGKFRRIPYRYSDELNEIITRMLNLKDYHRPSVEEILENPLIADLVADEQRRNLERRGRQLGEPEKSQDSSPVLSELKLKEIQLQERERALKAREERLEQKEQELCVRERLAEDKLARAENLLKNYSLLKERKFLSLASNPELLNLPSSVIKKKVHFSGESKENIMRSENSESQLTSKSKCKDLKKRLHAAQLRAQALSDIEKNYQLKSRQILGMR
Particulars: kinase NEK2; for remaining activity at 1 µM: read-out: % of control at 1 µM.

The target in assay [8] is T8, panel of 442 kinases (Homo sapiens, UniProt Q9UK32).
T8 construct: purchased Ambit Biosciences (scanMAXX KINOMEscan)
T8 sequence (Q9UK32 whole entry): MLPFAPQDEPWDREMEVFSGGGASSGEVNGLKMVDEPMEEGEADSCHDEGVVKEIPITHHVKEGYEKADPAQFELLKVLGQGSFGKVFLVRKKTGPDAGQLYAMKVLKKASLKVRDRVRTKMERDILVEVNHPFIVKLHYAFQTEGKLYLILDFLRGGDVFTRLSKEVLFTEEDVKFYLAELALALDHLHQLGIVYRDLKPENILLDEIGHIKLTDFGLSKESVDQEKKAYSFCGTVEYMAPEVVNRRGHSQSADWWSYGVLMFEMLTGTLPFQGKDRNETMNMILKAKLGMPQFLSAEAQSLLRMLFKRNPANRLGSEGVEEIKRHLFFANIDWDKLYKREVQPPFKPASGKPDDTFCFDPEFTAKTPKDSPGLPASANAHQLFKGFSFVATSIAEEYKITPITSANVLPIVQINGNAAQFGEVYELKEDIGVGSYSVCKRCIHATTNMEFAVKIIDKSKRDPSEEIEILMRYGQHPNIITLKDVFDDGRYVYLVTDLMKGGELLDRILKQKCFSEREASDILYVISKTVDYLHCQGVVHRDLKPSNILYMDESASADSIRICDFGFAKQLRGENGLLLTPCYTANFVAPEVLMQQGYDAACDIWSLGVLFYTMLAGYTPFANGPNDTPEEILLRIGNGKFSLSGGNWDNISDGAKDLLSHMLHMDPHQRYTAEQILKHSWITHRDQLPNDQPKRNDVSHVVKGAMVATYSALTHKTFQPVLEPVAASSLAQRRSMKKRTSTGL

In assay [9] the target is T9, panel of 442 kinases (Homo sapiens, UniProt O00238).
T9 construct: purchased Ambit Biosciences (scanMAXX KINOMEscan)
The note with it: BMPR1B; for remaining activity at 1 µM: read-out: % of control at 1 µM.

The target of assay [10] is T10, panel of 442 kinases (Homo sapiens, UniProt Q9Y2U5).
T10 construct: purchased Ambit Biosciences (scanMAXX KINOMEscan)
T10 sequence (Q9Y2U5 1-619): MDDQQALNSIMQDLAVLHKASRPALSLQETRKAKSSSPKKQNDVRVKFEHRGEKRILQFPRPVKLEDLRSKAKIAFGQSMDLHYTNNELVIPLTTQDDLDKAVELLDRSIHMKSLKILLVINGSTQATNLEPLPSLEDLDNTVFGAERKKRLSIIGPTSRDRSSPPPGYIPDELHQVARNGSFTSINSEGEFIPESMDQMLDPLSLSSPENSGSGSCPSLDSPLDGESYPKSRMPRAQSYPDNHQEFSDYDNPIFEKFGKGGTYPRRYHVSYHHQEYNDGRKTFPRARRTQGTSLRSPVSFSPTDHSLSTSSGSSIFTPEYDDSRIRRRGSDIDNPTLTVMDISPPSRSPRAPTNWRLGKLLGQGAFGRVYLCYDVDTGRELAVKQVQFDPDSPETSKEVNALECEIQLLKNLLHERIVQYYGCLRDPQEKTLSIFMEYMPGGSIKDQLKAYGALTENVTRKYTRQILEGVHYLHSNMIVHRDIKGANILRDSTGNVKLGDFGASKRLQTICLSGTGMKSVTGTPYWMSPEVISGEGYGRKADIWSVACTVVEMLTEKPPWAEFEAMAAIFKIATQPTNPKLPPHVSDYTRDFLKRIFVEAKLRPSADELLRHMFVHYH
Particulars: kinase MAP3K2; for remaining activity at 1 µM: read-out: % of control at 1 µM.

Setting [11] is: kinase RSK4(Kin.Dom.1-N-terminal), read-out: RSK4(Kin.Dom.1-N-terminal) (% of control at 1 µM).
Setting [12] is: kinase RSK4(Kin.Dom.2-C-terminal), read-out: RSK4(Kin.Dom.2-C-terminal) (% of control at 1 µM).
Where [13] appears, read: 10 µM, read-out: % of control at 10 µM.

T1 sequence (P07949 29-1114): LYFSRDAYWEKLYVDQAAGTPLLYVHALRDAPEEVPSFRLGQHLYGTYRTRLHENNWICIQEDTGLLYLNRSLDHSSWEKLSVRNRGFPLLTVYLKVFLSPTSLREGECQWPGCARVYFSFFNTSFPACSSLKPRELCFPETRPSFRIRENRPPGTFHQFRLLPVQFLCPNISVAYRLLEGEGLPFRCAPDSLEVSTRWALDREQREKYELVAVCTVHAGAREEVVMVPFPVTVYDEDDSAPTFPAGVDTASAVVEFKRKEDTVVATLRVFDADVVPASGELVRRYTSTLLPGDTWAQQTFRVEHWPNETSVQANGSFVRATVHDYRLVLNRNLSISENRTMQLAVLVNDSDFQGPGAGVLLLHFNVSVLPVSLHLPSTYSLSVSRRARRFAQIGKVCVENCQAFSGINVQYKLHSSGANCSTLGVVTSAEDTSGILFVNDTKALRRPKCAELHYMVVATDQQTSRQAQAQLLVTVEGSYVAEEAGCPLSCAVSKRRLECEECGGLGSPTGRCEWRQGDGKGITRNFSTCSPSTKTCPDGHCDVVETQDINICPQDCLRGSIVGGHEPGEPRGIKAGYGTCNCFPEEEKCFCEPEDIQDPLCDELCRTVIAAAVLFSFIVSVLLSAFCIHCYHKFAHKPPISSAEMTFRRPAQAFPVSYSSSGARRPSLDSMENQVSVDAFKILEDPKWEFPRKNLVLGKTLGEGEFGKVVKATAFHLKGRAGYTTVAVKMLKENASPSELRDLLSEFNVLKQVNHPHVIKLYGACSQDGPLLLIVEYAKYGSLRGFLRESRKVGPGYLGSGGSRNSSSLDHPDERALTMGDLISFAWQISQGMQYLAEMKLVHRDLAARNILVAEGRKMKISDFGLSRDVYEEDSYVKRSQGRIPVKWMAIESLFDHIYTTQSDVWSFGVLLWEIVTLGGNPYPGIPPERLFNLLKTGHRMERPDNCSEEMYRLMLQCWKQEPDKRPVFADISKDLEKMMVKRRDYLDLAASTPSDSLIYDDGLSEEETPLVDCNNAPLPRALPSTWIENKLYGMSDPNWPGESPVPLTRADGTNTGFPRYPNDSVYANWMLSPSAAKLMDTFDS
T4 sequence (P31749 whole entry): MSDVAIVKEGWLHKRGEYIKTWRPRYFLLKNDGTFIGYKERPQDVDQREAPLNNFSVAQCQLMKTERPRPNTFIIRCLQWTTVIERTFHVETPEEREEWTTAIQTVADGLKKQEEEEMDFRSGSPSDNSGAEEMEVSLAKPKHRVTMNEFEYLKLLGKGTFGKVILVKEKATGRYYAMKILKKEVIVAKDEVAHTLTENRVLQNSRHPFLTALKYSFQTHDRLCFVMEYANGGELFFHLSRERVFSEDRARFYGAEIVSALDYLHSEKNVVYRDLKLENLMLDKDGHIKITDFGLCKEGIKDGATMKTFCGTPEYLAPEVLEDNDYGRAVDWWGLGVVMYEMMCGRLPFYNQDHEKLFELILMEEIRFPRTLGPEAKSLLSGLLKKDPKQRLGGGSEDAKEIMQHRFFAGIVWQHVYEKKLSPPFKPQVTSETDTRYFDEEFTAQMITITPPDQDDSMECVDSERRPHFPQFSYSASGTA
T5 sequence (P45983 whole entry): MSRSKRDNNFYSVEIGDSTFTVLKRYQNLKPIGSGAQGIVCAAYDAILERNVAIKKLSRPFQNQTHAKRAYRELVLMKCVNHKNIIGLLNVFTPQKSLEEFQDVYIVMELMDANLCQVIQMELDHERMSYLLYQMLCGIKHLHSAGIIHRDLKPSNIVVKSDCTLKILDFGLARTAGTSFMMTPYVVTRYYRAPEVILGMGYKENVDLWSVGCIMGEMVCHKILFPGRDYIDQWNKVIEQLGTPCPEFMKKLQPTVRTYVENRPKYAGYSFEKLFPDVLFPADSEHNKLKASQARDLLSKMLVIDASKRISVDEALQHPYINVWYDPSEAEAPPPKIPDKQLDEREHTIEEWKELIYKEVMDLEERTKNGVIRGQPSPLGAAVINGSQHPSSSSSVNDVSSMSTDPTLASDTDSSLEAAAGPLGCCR

With `COc1ncc(-c2ccc3nccc(-c4ccnnc4)c3c2)cc1NS(=O)(=O)c1ccc(F)cc1F` [Omipalisib], the remaining activity at 1 µM in [1] came to 94%; in assay [2], 0%; in [3], 100%; in assay [4], 59%; in [5] it was 100%; in [6], 100%. The remaining activity at 1 µM amounted to 100% in assay [7]; 88% in [8] (setting [11]); 79% in [8] (setting [12]); 87% in [9]; 100% in assay [10].

`Cn1c(=O)n(-c2ccc(C(C)(C)C#N)cc2)c2c3cc(-c4cnc5ccccc5c4)ccc3ncc21` [Dactolisib, 2-methyl-2-[4-(3-methyl-2-oxo-8-quinolin-3-yl-2,3-dihydroimidazo[4,5-c]quinolin-1-yl)-phenyl] propionitrile]: the remaining activity at 1 µM in assay [1] stood at 100%; in assay [2] it was 38%; in assay [3], 96%; in assay [4] it was 100%; in [5], 84%; in assay [6], 73%. Besides, the remaining activity at 1 µM amounted to 88% in assay [7]; 71% in assay [8] (setting [11]); 82% in assay [8] (setting [12]); 91% in [9]; 72% in assay [10].

Consider `Nc1cc(C(F)(F)F)c(-c2cc(N3CCOCC3)nc(N3CCOCC3)n2)cn1` [Buparlisib], for which the remaining activity at 1 µM came to 97% in [1]; 87% in [3]; 94% in [4]; 98% in [5]; 100% in assay [6]; 84% in assay [7]. Besides, the remaining activity at 1 µM was 99% in assay [8] (setting [11]), 100% in assay [8] (setting [12]), 100% in assay [9] and 100% in assay [10]. The remaining activity at 10 µM was determined as 100% in assay [1] (10 µM, read-out: RET (% of control at 10 µM)); 100% in assay [3] (10 µM, read-out: TEC (% of control at 10 µM)); 100% in [4] (setting [13]); 100% in assay [5] (setting [13]); 100% in assay [6] (setting [13]); 86% in [7] (setting [13]). Also, the remaining activity at 10 µM in assay [8] (kinase RSK4(Kin.Dom.1-N-terminal), read-out: RSK4(Kin.Dom.1-N-terminal) (% of control at 10 µM)) turned out to be 100%; in [8] (kinase RSK4(Kin.Dom.2-C-terminal), read-out: RSK4(Kin.Dom.2-C-terminal) (% of control at 10 µM)) it was 100%; in assay [9] (setting [13]), 100%; in [10] (setting [13]) it was 100%.

As to `FC(F)c1nc2ccccc2n1-c1nc(N2CCOCC2)nc(N2CCOCC2)n1` [ZSTK474, 2-(difluoromethyl)-1-[4,6-di(4-morpholinyl)-1,3,5-triazin-2-yl]-1H-benzimidazole], the remaining activity at 1 µM in assay [1] was 100%; in [2], 0%; in assay [3], 89%; in assay [4] it was 100%; in assay [5], 86%; in assay [6], 93%. Further, the remaining activity at 1 µM in assay [7] came out at 87%; in assay [8] (setting [11]) it was 81%; in [8] (setting [12]) it was 91%; in assay [9], 94%; in assay [10], 74%.
